The test system of one experiment is NIH3T3. Description: Cytotoxicity against mouse NIH/3T3 cells after 96 hrs by MTT assay. In kind it is cell-based. As to conditions: NIH3T3, 96 h.
The test system of another experiment is Caco-2. As to the kind of experiment: Cytotoxicity against human Caco2 cells after 48 hrs by MTT assay. In kind it is functional, cell-based. The conditions noted are these: Caco-2, 48 h. Background: Formazan colour is commonly taken as a measure of viable cells.
In the next experiment the test system is T47D. Description: Cytotoxicity against human T47D cells after 48 hrs by MTT assay. In kind it is functional, cell-based.
The test system of another experiment is HT-29. As to the kind of experiment: Cytotoxicity against human HT-29 cells after 48 hrs by MTT assay. In kind it is functional, cell-based. The conditions noted are these: HT-29, 48 h.
The next experiment has as its system Bel-7402. As to the kind of experiment: Cytotoxicity against human Bel7402 cells. In kind it is functional, cell-based.
A further experiment relates to HCT-116. Description: Cytotoxicity against human HCT116 cells. In kind it is functional, cell-based.

A word on the IC50: it is the point on the concentration scale where inhibition reaches its midpoint. Low values mean higher potency, high ones lower potency.

In brackets after ≈: the same amount, converted by molar mass.

In the case of `O=C(/C=C/c1ccc(O)cc1)c1c(O)cc(O)cc1O[C@@H]1O[C@H](CO)[C@@H](O)[C@H](O)[C@H]1O`, the IC50 in the experiment with NIH3T3 was above 200 µg/mL; in the experiment on Caco-2, 8.45 µg/mL (≈ 19.5 µM); in the experiment with T47D, above 200 µg/mL.

Turning to `O=c1c(-c2ccc(O[C@@H]3O[C@H](CO)[C@@H](O)[C@H](O)[C@H]3O)c(O)c2)coc2cc(O)cc(O)c12`, the concentration for half-maximal inhibition (IC50) with NIH3T3 is above 200 µg/mL; in the experiment with Caco-2, 0.006 µg/mL (≈ 0.0134 µM); in the experiment on T47D it was 0.169 µg/mL (≈ 0.377 µM); in the experiment with HT-29, 0.009 µg/mL (≈ 0.0201 µM).

For `CN(Cc1cnc2nc(N)nc(N)c2n1)c1ccc(C(=O)N[C@@H](CCC(=O)O)C(=O)O)cc1` [METHOTREXATE], the 50% inhibitory concentration (IC50) in the experiment with NIH3T3 turned out to be 0.24 µg/mL (≈ 0.528 µM).

`COc1cc(-c2oc3cc(O)cc(O)c3c(=O)c2O[C@@H]2O[C@H](CO)[C@@H](O)[C@H](O)[C@H]2O[C@@H]2O[C@@H](C)[C@H](O)[C@@H](O)[C@H]2O)ccc1O`: the IC50 with NIH3T3 was above 200 µg/mL; in the experiment with Bel-7402, 74.4 µM; in the experiment with HCT-116, 72 µM; with Caco-2 it was 2.47 µg/mL (≈ 3.95 µM); in the experiment on T47D it was 0.003 µg/mL (≈ 0.0048 µM).

The values are drawn from ChEMBL document CHEMBL2429793, “Potent cytotoxic flavonoids from Iranian Securigera securidaca” (Med Chem Res, 2013).
